Data from patent publication US12059397B2 (METIMEDI PHARMACEUTICALS CO., LTD., priority 2016, dated 2024).

Tests used:
[1] = Stability of calcium lactate in water and acidic conditions; format: physicochemical
Source text: However, the drug is very unstable in water, especially under acidic conditions, and rapidly degraded. Therefore, it is difficult for this drug to show pharmaceutical efficacy with a general oral formulation because it is readily decomposed in the acidic environment of the stomach upon oral administration. Calcium lactate is also not absorbed when it reaches the large intestines because it is destroyed by enzymes present in the large intestine.

[2] = test system: Human colorectal cancer cells; assay: In vivo efficacy of long-acting formulation, flank xenograft; design: species or system Balb/c nude mice; conditions: 2 mg/kg subcutaneously B.I.D. for 21 days; FIG. 8
Experimental: Human colorectal cancer cells (5×10^6) were transplanted to the flank of Balb/c nude mice. […] Group 2: […] Group 3: […] Group 4: […] Tumor volume was measured 3 times per week until the end of experiment and was recorded by calculating minimum (M) and maximum (L) linear size of the tumors (L×M^2/2). Tumor weight was measured after autopsy on the final day of experiment. Tumor mass was sectioned to 5 μm and then stained with hematoxylin and eosin for histological analysis.

cancer cells [3] = conditions: cited from earlier work
cancer cells [4] = conditions: in vivo; cited from earlier work
HCT116 cells = assay: In vivo liver metastasis after intra-splenic injection; design: species or system Mice; conditions: subcutaneous injection twice a day for 3 weeks; FIG. 11
Experimental: Cells were maintained in RPMI-1640 medium (Welgene, Daegu, South Korea) supplemented with 10% fetal bovine serum (Welgene, Daegu, South Korea), 100 IU/ml penicillin, and 100 μg/ml streptomycin (Welgene, Daegu, South Korea) in a humidified atmosphere of 5% CO2, at 37° C. Calcium lactate (CaLa) was purchased from Sigma-Aldrich (St Louis, MO, USA).
Mice were anesthetized with a 2% isoflurane. 5×10^6 of HCT116 cells were suspended in the 100 μL phosphate buffered saline for one injection. A small left abdominal flank incision was made and the spleen was exteriorized for the intra-splenic injection. The prepared cells were injected into the spleen with a 30-gauge needle. To prevent tumor cell leakage and bleeding, a cotton swab was held over the site of injection for 1 min. The injected spleen was returned to the abdomen and the wound was sutured with 6-0 black silk.

cancer cell lines = conditions: cited from earlier work

Structure (SMILES): CC(O)C(=O)[O-].CC(O)C(=O)[O-].[Ca+2] (stereo not shown) [calcium lactate]
- stability in water, especially under acidic conditions [1]: very unstable
- tumor size versus control group [2]: clearly smaller than the control group
- levels of growth, metastasis (migration) and tube formation of the cancer cells (cancer cells [3]): decreased
- levels of lactate, LDH-B, pyruvate, PDH and α-KG in cells (cancer cells [3]): increased
- levels of β-catenin, PARP, HIF-1α and VEGF in cells (cancer cells [3]): decreased
- growth of cancer cells in animal models (cancer cells [4]): suppressed
- inflammatory response in developed tumor (HCT116 cells): induced
- liver metastasis as compared to the control (HCT116 cells): suppressed
- anticancer effect in combination with conventional radiation (cancer cell lines; decreased amount of radiation): equivalent anticancer effect
- anticancer effect in combination with well-known anticancer drugs (cancer cell lines; decreased concentration of the anticancer drugs): higher anticancer effect
